ChEMBL document CHEMBL1949655, “Neomycin-phenolic conjugates: polycationic amphiphiles with broad-spectrum antibacterial activity, low hemolytic activity and weak serum protein binding” (Bioorg Med Chem Lett, 2012)
Values after ≈ are worked out from the molar mass of the structure shown.

Assays:
[1] = test system: Klebsiella pneumoniae; experiment: microbe, parasite or virus in culture; format: functional; details: ATCC 13883, 24 h
Description: Antibacterial activity against Klebsiella pneumoniae ATCC 13883 after 24 hrs by macrobroth dilution method

[2] = test system: Staphylococcus aureus; experiment: microbe, parasite or virus in culture; format: functional; details: ATCC 29213, 24 h
Description: Antibacterial activity against Staphylococcus aureus ATCC 29213 after 24 hrs by macrobroth dilution method in the presence of bovine serum albumin

[3] = test system: Staphylococcus epidermidis; experiment: microbe, parasite or virus in culture; format: functional; details: Staphylococcus epidermidis, 81388, 24 h
Description: Antibacterial activity against methicillin-susceptible Staphylococcus epidermidis 81388 after 24 hrs by macrobroth dilution method

[4] = test system: Streptococcus pneumoniae; experiment: microbe, parasite or virus in culture; format: functional; details: ATCC 49619, 24 h
Description: Antibacterial activity against Streptococcus pneumoniae ATCC 49619 after 24 hrs by macrobroth dilution method

[5] = test system: Klebsiella pneumoniae; experiment: microbe, parasite or virus in culture; format: functional; details: ATCC 13883, 24 h; remark: listed apart in the source
Description: Antibacterial activity against Klebsiella pneumoniae ATCC 13883 after 24 hrs by macrobroth dilution method in the presence of bovine serum albumin

[6] = test system: Enterococcus faecalis; experiment: microbe, parasite or virus in culture; format: functional; details: ATCC 29212, 24 h
Description: Antibacterial activity against Enterococcus faecalis ATCC 29212 after 24 hrs by macrobroth dilution method

[7] = test system: Streptococcus pneumoniae; experiment: microbe, parasite or virus in culture; format: functional; details: ATCC 49619, 24 h; remark: listed apart in the source
Description: Antibacterial activity against Streptococcus pneumoniae ATCC 49619 after 24 hrs by macrobroth dilution method in the presence of bovine serum albumin

[8] = test system: Escherichia coli; experiment: microbe, parasite or virus in culture; format: functional; details: ATCC 25922, 24 h
Description: Antibacterial activity against Escherichia coli ATCC 25922 after 24 hrs by macrobroth dilution method in the presence of bovine serum albumin

[9] = test system: Acinetobacter baumannii; experiment: microbe, parasite or virus in culture; format: functional; details: isolate CAN-ICU 63169, 24 h
Description: Antibacterial activity against Acinetobacter baumannii 63169 isolate CAN-ICU after 24 hrs by macrobroth dilution method

[10] = test system: Escherichia coli; experiment: microbe, parasite or virus in culture; format: functional; details: isolate CAN-ICU 61714, 24 h
Description: Antibacterial activity against Escherichia coli isolate CAN-ICU 61714 after 24 hrs by macrobroth dilution method

[11] = test system: Stenotrophomonas maltophilia; experiment: microbe, parasite or virus in culture; format: functional; details: isolate CAN-ICU 62584, 24 h
Description: Antibacterial activity against Stenotrophomonas maltophilia isolate CAN-ICU 62584 after 24 hrs by macrobroth dilution method in the presence of bovine serum albumin

[12] = test system: Escherichia coli; experiment: microbe, parasite or virus in culture; format: functional; details: isolate CAN-ICU 61714, 24 h; remark: listed apart in the source
Description: Antibacterial activity against Escherichia coli isolate CAN-ICU 61714 after 24 hrs by macrobroth dilution method in the presence of bovine serum albumin

[13] = test system: Enterococcus faecium; experiment: microbe, parasite or virus in culture; format: functional; details: ATCC 27270, 24 h
Description: Antibacterial activity against Enterococcus faecium ATCC 27270 after 24 hrs by macrobroth dilution method in the presence of bovine serum albumin

[14] = test system: Pseudomonas aeruginosa; experiment: microbe, parasite or virus in culture; format: functional; details: isolate CAN-ICU 62308, 24 h
Description: Antibacterial activity against Pseudomonas aeruginosa isolate CAN-ICU 62308 after 24 hrs by macrobroth dilution method

[15] = test system: Escherichia coli; experiment: microbe, parasite or virus in culture; format: functional; details: isolate CAN-ICU 63074, 24 h
Description: Antibacterial activity against Escherichia coli isolate CAN-ICU 63074 after 24 hrs by macrobroth dilution method

[16] = test system: Stenotrophomonas maltophilia; experiment: microbe, parasite or virus in culture; format: functional; details: isolate CAN-ICU 62584, 24 h; remark: listed apart in the source
Description: Antibacterial activity against Stenotrophomonas maltophilia isolate CAN-ICU 62584 after 24 hrs by macrobroth dilution method

[17] = test system: Staphylococcus aureus; experiment: microbe, parasite or virus in culture; format: functional; details: ATCC 29213, 24 h; remark: listed apart in the source
Description: Antibacterial activity against Staphylococcus aureus ATCC 29213 after 24 hrs by macrobroth dilution method

[18] = test system: Pseudomonas aeruginosa; experiment: microbe, parasite or virus in culture; format: functional; details: ATCC 27853, 24 h
Description: Antibacterial activity against Pseudomonas aeruginosa ATCC 27853 after 24 hrs by macrobroth dilution method

[19] = test system: Escherichia coli; experiment: microbe, parasite or virus in culture; format: functional; details: ATCC 25922, 24 h; remark: listed apart in the source
Description: Antibacterial activity against Escherichia coli ATCC 25922 after 24 hrs by macrobroth dilution method

[20] = test system: Enterococcus faecium; experiment: microbe, parasite or virus in culture; format: functional; details: ATCC 27270, 24 h; remark: listed apart in the source
Description: Antibacterial activity against Enterococcus faecium ATCC 27270 after 24 hrs by macrobroth dilution method

[21] = test system: Staphylococcus aureus; experiment: microbe, parasite or virus in culture; format: functional; details: ATCC 33592, 24 h
Description: Antibacterial activity against methicillin-resistant Staphylococcus aureus ATCC 33592 after 24 hrs by macrobroth dilution method

[22] = test system: Staphylococcus epidermidis; experiment: microbe, parasite or virus in culture; format: functional; details: isolate CAN-ICU61589, 24 h
Description: Antibacterial activity against methicillin-resistant Staphylococcus epidermidis isolate CAN-ICU 61589 after 24 hrs by macrobroth dilution method

[23] = test system: Acinetobacter baumannii; experiment: microbe, parasite or virus in culture; format: functional; details: isolate CAN-ICU 63169, 24 h; remark: listed apart in the source
Description: Antibacterial activity against Acinetobacter baumannii isolate CAN-ICU 63169 after 24 hrs by macrobroth dilution method in the presence of bovine serum albumin

[24] = test system: Escherichia coli; experiment: microbe, parasite or virus in culture; format: functional; details: isolate CAN-ICU 63074, 24 h; remark: listed apart in the source
Description: Antibacterial activity against Escherichia coli isolate CAN-ICU 63074 after 24 hrs by macrobroth dilution method in the presence of bovine serum albumin

[25] = test system: Staphylococcus epidermidis; experiment: microbe, parasite or virus in culture; format: functional, isolate CAN-ICU 61589; details: isolate CAN-ICU61589, 24 h
Description: Antibacterial activity against methicillin-resistant Staphylococcus epidermidis isolate CAN-ICU 61589 after 24 hrs by macrobroth dilution method in the presence of bovine serum albumin

[26] = test system: Pseudomonas aeruginosa; experiment: microbe, parasite or virus in culture; format: functional; details: isolate CAN-ICU 62308, 24 h; remark: listed apart in the source
Description: Antibacterial activity against Pseudomonas aeruginosa isolate CAN-ICU 62308 after 24 hrs by macrobroth dilution method in the presence of bovine serum albumin

[27] = test system: Enterococcus faecalis; experiment: microbe, parasite or virus in culture; format: functional; details: ATCC 29212, 24 h; remark: listed apart in the source
Description: Antibacterial activity against Enterococcus faecalis ATCC 29212 after 24 hrs by macrobroth dilution method in the presence of bovine serum albumin

[28] = test system: Staphylococcus epidermidis; experiment: microbe, parasite or virus in culture; format: functional; details: Staphylococcus epidermidis, 81388, 24 h; remark: listed apart in the source
Description: Antibacterial activity against methicillin-susceptible Staphylococcus epidermidis 81388 after 24 hrs by macrobroth dilution method in the presence of bovine serum albumin

[29] = test system: Staphylococcus aureus; experiment: microbe, parasite or virus in culture; format: functional; details: ATCC 33592, 24 h; remark: listed apart in the source
Description: Antibacterial activity against methicillin-resistant Staphylococcus aureus ATCC 33592 after 24 hrs by macrobroth dilution method in the presence of bovine serum albumin

[30] = test system: Pseudomonas aeruginosa; experiment: microbe, parasite or virus in culture; format: functional; details: ATCC 27853, 24 h; remark: listed apart in the source
Description: Antibacterial activity against Pseudomonas aeruginosa ATCC 27853 after 24 hrs by macrobroth dilution method in the presence of bovine serum albumin

[31] = Toxicity in human erythrocytes assessed as hemolysis at 100 ug/ml by spectrophotometry; details: at 100 µg/mL

Row | SMILES | MIC90 [1] | MIC90 [2] | MIC90 [3] | MIC90 [4] | MIC90 [5] | MIC90 [6] | MIC90 [7] | MIC90 [8] | MIC90 [9] | MIC90 [10] | MIC90 [11] | MIC90 [12] | MIC90 [13] | MIC90 [14] | MIC90 [15] | MIC90 [16] | MIC90 [17] | MIC90 [18] | MIC90 [19] | MIC90 [20] | also measured
1 | Cc1cc(O)cc(C)c1Cl [CHLOROXYLENOL] | 256 µg/mL (≈ 1630 µM) | 512 µg/mL (≈ 3270 µM) | 32 µg/mL (≈ 204 µM) | 128 µg/mL (≈ 817 µM) | > 512 µg/mL | 256 µg/mL (≈ 1630 µM) | > 512 µg/mL | > 512 µg/mL | 128 µg/mL (≈ 817 µM) | 256 µg/mL (≈ 1630 µM) | > 512 µg/mL | > 512 µg/mL | > 512 µg/mL | 256 µg/mL (≈ 1630 µM) | 256 µg/mL (≈ 1630 µM) | 128 µg/mL (≈ 817 µM) | 32 µg/mL (≈ 204 µM) | 512 µg/mL (≈ 3270 µM) | 256 µg/mL (≈ 1630 µM) | 256 µg/mL (≈ 1630 µM) | MIC90 [21]: 64 µg/mL (≈ 409 µM); MIC90 [22]: 16 µg/mL (≈ 102 µM); MIC90 [23]: > 512 µg/mL; MIC90 [24]: > 512 µg/mL; MIC90 [25]: 512 µg/mL (≈ 3270 µM); MIC90 [26]: > 512 µg/mL; MIC90 [27]: > 512 µg/mL; MIC90 [28]: 512 µg/mL (≈ 3270 µM); MIC90 [29]: 512 µg/mL (≈ 3270 µM); MIC90 [30]: > 512 µg/mL
2 | Cc1cc(OCCCCc2cn(C[C@H]3O[C@@H](O[C@@H]4[C@@H](O)[C@H](N)C[C@H](N)[C@H]4O[C@H]4O[C@H](CN)[C@@H](O)[C@H](O)[C@H]4N)[C@H](O)[C@@H]3O[C@H]3O[C@@H](CN)[C@@H](O)[C@H](O)[C@H]3N)nn2)cc(C)c1Cl | 4 µg/mL (≈ 4.56 µM) | 32 µg/mL (≈ 36.5 µM) | 8 µg/mL (≈ 9.13 µM) | 64 µg/mL (≈ 73 µM) | 4 µg/mL (≈ 4.56 µM) | 128 µg/mL (≈ 146 µM) | 256 µg/mL (≈ 292 µM) | 32 µg/mL (≈ 36.5 µM) | 512 µg/mL (≈ 584 µM) | 16 µg/mL (≈ 18.3 µM) | > 512 µg/mL | 16 µg/mL (≈ 18.3 µM) | 32 µg/mL (≈ 36.5 µM) | 256 µg/mL (≈ 292 µM) | 128 µg/mL (≈ 146 µM) | > 512 µg/mL | 16 µg/mL (≈ 18.3 µM) | 512 µg/mL (≈ 584 µM) | 32 µg/mL (≈ 36.5 µM) | 16 µg/mL (≈ 18.3 µM) | hemolysis at 100 ug/ml [31]: 0.75%; MIC90 [21]: 128 µg/mL (≈ 146 µM); MIC90 [22]: 8 µg/mL (≈ 9.13 µM); MIC90 [23]: 512 µg/mL (≈ 584 µM); MIC90 [24]: 128 µg/mL (≈ 146 µM); MIC90 [25]: 8 µg/mL (≈ 9.13 µM); MIC90 [26]: 256 µg/mL (≈ 292 µM); MIC90 [27]: 128 µg/mL (≈ 146 µM); MIC90 [28]: 8 µg/mL (≈ 9.13 µM); MIC90 [29]: 256 µg/mL (≈ 292 µM); MIC90 [30]: > 512 µg/mL
3 | Oc1cc(Cl)ccc1Oc1ccc(Cl)cc1Cl [TRICLOSAN] | 1 µg/mL (≈ 3.45 µM) | 0.5 µg/mL (≈ 1.73 µM) | 1 µg/mL (≈ 3.45 µM) | 128 µg/mL (≈ 442 µM) | 32 µg/mL (≈ 111 µM) | 8 µg/mL (≈ 27.6 µM) | 256 µg/mL (≈ 884 µM) | 16 µg/mL (≈ 55.3 µM) | 8 µg/mL (≈ 27.6 µM) | 1 µg/mL (≈ 3.45 µM) | > 512 µg/mL | 16 µg/mL (≈ 55.3 µM) | 512 µg/mL (≈ 1770 µM) | 64 µg/mL (≈ 221 µM) | 1 µg/mL (≈ 3.45 µM) | 512 µg/mL (≈ 1770 µM) | 0.5 µg/mL (≈ 1.73 µM) | > 512 µg/mL | ≤ 0.25 µg/mL | 16 µg/mL (≈ 55.3 µM) | MIC90 [21]: ≤ 0.25 µg/mL; MIC90 [22]: ≤ 0.25 µg/mL; MIC90 [23]: 128 µg/mL (≈ 442 µM); MIC90 [24]: 64 µg/mL (≈ 221 µM); MIC90 [25]: 1 µg/mL (≈ 3.45 µM); MIC90 [26]: > 512 µg/mL; MIC90 [27]: 512 µg/mL (≈ 1770 µM); MIC90 [28]: 1 µg/mL (≈ 3.45 µM); MIC90 [29]: 1 µg/mL (≈ 3.45 µM); MIC90 [30]: > 512 µg/mL
